From patent publication US10736898B2, “Positive allosteric modulators of the muscarinic acetylcholine receptor M4” (Vanderbilt University, priority 2017, dated 2020) come the findings set out here.

A value given as a limit tells only on which side of the number the result lay.

For data set [1], the target named is T1, Human M4 (Homo sapiens, UniProt P08173).
T1 construct: expressed in transfected cells
T1 sequence (P08173 1-479): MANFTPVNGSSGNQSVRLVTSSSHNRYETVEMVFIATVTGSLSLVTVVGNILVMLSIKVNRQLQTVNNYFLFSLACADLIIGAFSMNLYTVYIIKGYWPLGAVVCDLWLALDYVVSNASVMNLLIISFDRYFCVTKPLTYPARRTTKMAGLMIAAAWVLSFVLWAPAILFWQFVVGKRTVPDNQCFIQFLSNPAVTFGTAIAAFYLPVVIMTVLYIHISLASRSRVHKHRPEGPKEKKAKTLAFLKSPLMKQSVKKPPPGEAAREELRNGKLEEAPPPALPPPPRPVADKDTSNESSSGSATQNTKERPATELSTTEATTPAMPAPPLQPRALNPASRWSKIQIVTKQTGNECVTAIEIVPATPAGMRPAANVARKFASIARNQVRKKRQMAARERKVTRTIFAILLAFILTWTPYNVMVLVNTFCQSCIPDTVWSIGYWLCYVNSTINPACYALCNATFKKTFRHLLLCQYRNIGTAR
The data set is described as follows: mAChR M4 cell-based functional assay (calcium flux, potentiation of EC20 acetylcholine response). In general terms: A change in cytosolic calcium serves as a functional read-out for many receptors and channels.
Method: Human M4 cDNA, along with the chimeric G protein Gqi5, were transfected into Chinese hamster ovary (CHO-K1) cells purchased from the American Type Culture Collection using commercially available Lipofectamine 2000 transfection reagent (Dalby, B. et al., Methods (2004) 33(2), 95-103). hM4-Gqi5 cells were grown in Ham's F-12 medium containing 10% heat-inactivated fetal bovine serum (FBS), 20 mM HEPES, 50 μg/mL G418 sulfate (CAS #108321-42-2), and 500 μg/mL Hygromycin B. rM4-Gqi5 cells were grown in DMEM containing 10% heat-inactivated FBS, 20 mM HEPES, 400 μg/mL G418 sulfate, and 500 μg/mL Hygromycin B.
For high throughput measurement of agonist-evoked increases in intracellular calcium, CHO-K1 cells stably expressing muscarinic receptors were plated in growth medium lacking G418 sulfate and hygromycin at 15,000 cells/20 μL/well in Greiner 384-well black-walled, tissue culture (TC)-treated, clear-bottom plates (VWR). Cells were incubated overnight at 37° C. and 5% CO2. The next day, cells were washed using an ELX 405 (BioTek) with assay buffer; the final volume was then aspirated to 20 μL. […] Dye was removed by washing with the ELX 405 and the final volume was aspirated to 20 μL. Compound master plates were formatted in an 11 point concentration-response curve (CRC) format (1:3 dilutions) in 100% DMSO with a starting concentration of 10 mM using a BRAVO liquid handler (Agilent). Test compound CRCs were then transferred to daughter plates (240 nL) using the Echo acoustic plate reformatter (Labcyte, Sunnyvale, Calif.) and then diluted into assay buffer (40 μL) to a 2× stock using a Thermo Fisher Combi (Thermo Fisher Scientific, Waltham, Mass.).
Calcium flux was measured using the Functional Drug Screening System (FDSS) 6000 or 7000 (Hamamatsu Corporation, Tokyo, Japan) as an increase in the fluorescent static ratio. Compounds were applied to cells (20 μL, 2×) using the automated system of the FDSS at 2-4 seconds into the protocol and the data were collected at 1 Hz. At 144 seconds, 10 μL of an EC20 concentration of the muscarinic receptor agonist acetylcholine was added (5×), followed by the addition of 12 μL of an EC80 concentration of acetylcholine at the 230 second time point (5×). Agonist activity was analyzed as a concentration-dependent increase in calcium mobilization upon compound addition. Positive allosteric modulator activity was analyzed as a concentration-dependent increase in the EC20 acetylcholine response. […] Antagonist activity was analyzed as a concentration-dependent decrease in the EC80 acetylcholine response. Concentration-response curves were generated using a four-parameter logistical equation in XLFit curve fitting software (IDBS, Bridgewater, N.J.) for Excel (Microsoft, Redmond, Wash.) or Prism (GraphPad Software, Inc., San Diego, Calif.).

The target in data set [2] is P450 3A4 (Homo sapiens, UniProt P08684). Description: P450 3A4 inhibition. The data set is classed as in vitro ADME. As to the method: (§1) Compound 1 was evaluated in several well-known in vitro assays to investigate both metabolism and pharmacokinetics. Bidirectional permeability/efflux was determined in MDCK-MDR1 cells, which originate from transfection of Madin Darby canine kidney (MDCK) cells with the MDR1 gene. These assays were performed according to known methods as generally described in the following references: Conde-Ceide et al. ACS Med. Chem. Lett. 2015, 6, 716-720; Morris et al. J. Med. Chem. 2014, 57, 10192-10197; and Bubser et al. ACS Chem. Neurosci. 2014, 5, 920-942.

Data set [3] in a line: Dog Fu (plasma). Type of data set: in vitro ADME. As to the method: as §1
For data set [4], the target named is P450 2C9 (Homo sapiens, UniProt P11712). Description: P450 2C9 inhibition. The data set is classed as in vitro ADME. Here is the method: as §1
Data set [5] can be described thus: Rat Fu (brain). The data set is classed as in vitro ADME. Here is the method: as §1
Data set [6] has as its system male Sprague-Dawley rats. Description: Reversal of amphetamine-induced hyperlocomotion in rats. Type of data set: in vivo, rat. As to the method:
Drugs: d-Amphetamine hemisulfate was obtained from Sigma (St. Louis, Mo.). Salt-correction was used to determine the correct amount of the d-amphetamine hemisulfate form in milligrams to add to sterile water in order to yield a 0.75 mg/mL solution, which would be dosed at 1 mL/kg body weight of each animal. […] The solutions were formulated so that animals were injected with a volume equal to 10 mL/kg body weight for all compounds. The appropriate amount according to the dosage was mixed in 10% Tween 80 (Sigma) 90% sterile water. The mixtures were then vortexed and stored in a 39° C. sonication bath for 1 hour, until in a microsuspension (except for the highest dose, which was a suspension).
Animals: Male Sprague-Dawley rats weighing 239-300 grams and averaging 265 g (Harlan, Inc., Indianapolis, Ind.) were used. They were housed in the animal care facility certified by the American Association for the Accreditation of Laboratory Animal Care (AALAC) under a 12-hour light/dark cycle (lights on: 6 a.m.; lights off: 6 p.m.) and had free access to food and water. The animals used in this experiment were food-deprived the evening before experimentation for oral dosing of compound/vehicle. The experimental protocols performed during the light cycle were approved by the Institutional Animals Care and Use Committee of Vanderbilt University and conformed to the guidelines established by the National Research Council Guide for the Care and Use of Laboratory Animals.
Amphetamine-induced Hyperlocomotion: Male Harlan Sprague Dawley rats were habituated in Smart Open Field locomotor activity test chambers (Hamilton-Kinder, San Diego, Calif.) with 16×16 photo beams to automatically record locomotor activity. […] They were monitored for an additional 30 minutes and then injected subcutaneously with vehicle or […] amphetamine. Animals were then monitored for an additional 60 minutes, for a total of 120 minutes. Data were expressed as changes in ambulation defined as total number of beam breaks per 5 minute interval. […]
Data Analysis: Behavioral data were analyzed using a two-way ANOVA with main effects of treatment and time. […] In addition, the total number of beam breaks from the amphetamine administration (65 min) to the end of the study (120 min) was calculated and graphed. Percent Reversal was calculated as follows using Microsoft Excel: In each animal, total ambulation from t=65 to t=120 was summed. The mean of each sum was calculated in the VAMP group. Then, for each animal, Percent Reversal was calculated with the following formula: Percent Reversal=100−{[(total ambulation in each animal from t=65 to t=120)/(mean of each sum from t=65 to t=120 in VAMP group)]*100}. The mean Percent Reversal, as well as the standard error, was calculated for each dose group using GraphPad Prism V5.04.

Data set [7] in a line: Rat Fu (plasma). Type of data set: in vitro ADME. Here is the method:
as §1

The nature of data set [8]: Dog CLint. Type of data set: in vitro ADME. Here is the method: as §1
Data set [9] addresses P450 2D6 (Homo sapiens, UniProt P10635). The data set is described as follows: P450 2D6 inhibition. Type of data set: in vitro ADME. Here is the method: as §1

Sequence of P450 3A4 (P08684 whole entry): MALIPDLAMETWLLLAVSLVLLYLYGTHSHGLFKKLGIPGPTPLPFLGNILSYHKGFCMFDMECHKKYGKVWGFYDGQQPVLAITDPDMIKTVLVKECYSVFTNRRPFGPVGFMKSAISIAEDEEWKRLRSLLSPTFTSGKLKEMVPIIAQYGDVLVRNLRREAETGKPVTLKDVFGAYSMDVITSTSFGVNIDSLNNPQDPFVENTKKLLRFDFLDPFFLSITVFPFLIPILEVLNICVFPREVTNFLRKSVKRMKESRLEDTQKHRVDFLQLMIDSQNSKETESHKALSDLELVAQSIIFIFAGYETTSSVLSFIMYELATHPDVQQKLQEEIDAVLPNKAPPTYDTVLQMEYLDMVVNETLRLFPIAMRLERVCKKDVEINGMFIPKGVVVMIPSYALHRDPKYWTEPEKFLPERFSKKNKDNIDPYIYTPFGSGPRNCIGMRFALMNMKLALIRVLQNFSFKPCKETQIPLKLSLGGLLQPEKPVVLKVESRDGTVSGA
Sequence of P450 2D6 (P10635 whole entry): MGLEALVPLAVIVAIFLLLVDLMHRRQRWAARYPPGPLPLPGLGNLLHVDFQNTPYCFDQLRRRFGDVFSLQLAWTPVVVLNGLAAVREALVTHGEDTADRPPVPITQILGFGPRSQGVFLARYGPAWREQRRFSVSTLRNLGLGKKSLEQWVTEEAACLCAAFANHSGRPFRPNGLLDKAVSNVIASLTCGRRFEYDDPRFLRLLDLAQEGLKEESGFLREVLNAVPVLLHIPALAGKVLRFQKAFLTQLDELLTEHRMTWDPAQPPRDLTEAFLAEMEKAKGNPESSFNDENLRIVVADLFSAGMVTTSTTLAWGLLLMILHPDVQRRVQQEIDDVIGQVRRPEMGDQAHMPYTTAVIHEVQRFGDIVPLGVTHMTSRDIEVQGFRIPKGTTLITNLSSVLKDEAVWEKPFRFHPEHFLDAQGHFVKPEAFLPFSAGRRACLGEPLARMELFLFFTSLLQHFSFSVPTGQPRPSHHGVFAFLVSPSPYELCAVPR
Sequence of P450 2C9 (P11712 whole entry): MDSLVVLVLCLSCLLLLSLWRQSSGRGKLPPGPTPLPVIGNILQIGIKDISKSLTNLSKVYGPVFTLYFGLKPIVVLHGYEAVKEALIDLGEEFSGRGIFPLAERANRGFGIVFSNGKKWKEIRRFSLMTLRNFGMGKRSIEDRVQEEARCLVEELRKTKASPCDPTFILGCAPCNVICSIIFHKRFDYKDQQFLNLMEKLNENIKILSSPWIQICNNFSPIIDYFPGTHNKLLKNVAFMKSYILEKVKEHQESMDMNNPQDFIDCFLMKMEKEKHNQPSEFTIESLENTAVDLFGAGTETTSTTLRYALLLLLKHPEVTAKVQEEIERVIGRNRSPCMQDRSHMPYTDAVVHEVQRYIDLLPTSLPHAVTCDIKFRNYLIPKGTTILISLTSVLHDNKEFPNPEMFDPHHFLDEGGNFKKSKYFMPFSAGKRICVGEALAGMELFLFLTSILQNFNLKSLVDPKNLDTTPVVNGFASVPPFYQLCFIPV

Usually Emax stands for the greatest response seen or fitted, relative to the assay's reference. The EC50 is the concentration giving half of the maximal effect. What is called IC50 is the midpoint of a concentration-inhibition curve. The low end stands for greater potency, the high end for weaker potency. A word on the fraction unbound: it is the share of the substance not bound to proteins or other matrix. High values mean weak binding, low ones extensive binding. Usually CLint scaled stands for the capacity of the preparation to metabolise the compound, expressed as a volume cleared per time. As to `Cc1nc(C)c2c(n1)sc1c(NCc3ccc(C(C)(C)O)cc3)ncnc12` [Compound 1, 2-(4-(((7,9-Dimethylthieno[2,3-d:4,5-d′]dipyrimidin-4-yl)amino)methyl)phenyl)propan-2-ol], in [1] (% ACh maximum at 30 μM, human M4), the Emax at 30 µM is 70.4%. Also, the EC50 in data set [1] (CHO-K1 cells with human M4 and Gqi5, increase in EC20 acetylcholine response) amounted to 1.25 µM. In addition, the figures for the IC50 in data set [2], in data set [4] and in data set [9] were 17 µM, 17 µM and greater than 30 µM, respectively. Besides, the results for the fraction unbound in data set [3], in [5] and in data set [7] were 0.072, 0.016 and 0.024, respectively. Also, the “percent reversal of amphetamine-induced hyperlocomotion” value in data set [6] (1 mg/kg p.o.) stood at 30.5%; in data set [6] (3 mg/kg p.o.) it was 41.1%; in [6] (10 mg/kg p.o.) it was 54.2%. This compound also registered a CLint scaled in [8] of 17 mL/min/kg.
